These results are taken from US11590116B2 (THERAVANCE BIOPHARMA R&D IP, LLC, priority 2019, dated 2023).

Assay [1] relates to TGF-β-stimulated SMAD3 phosphorylation in BEAS-2B cells. Nature of the assay: Cellular ALK5 potency assay, inhibition of TGF-β stimulated pSMAD3 formation in BEAS-2B cells. The format is cell-based. Particulars: Homo sapiens; inhibition of TGF-β stimulated pSMAD3 formation, BEAS-2B cells; read-out: BEAS2B pIC50 (converted). The method, boiled down: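 Potency is reported as pIC50, derived from concentration-dependent reduction of pSMAD3 AlphaLISA signal against TGF-β-stimulated cells without compound. BEAS-2B cells received compound for 1 h before a 30-min stimulation with 10 ng/mL TGF-β.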

The target in assay [2] is T1, recombinant human ALK5 (TGF-βR1) protein (Homo sapiens, UniProt P36897).
T1 construct: purchased Life Technologies PR9075A
T1 sequence (P36897 34-503): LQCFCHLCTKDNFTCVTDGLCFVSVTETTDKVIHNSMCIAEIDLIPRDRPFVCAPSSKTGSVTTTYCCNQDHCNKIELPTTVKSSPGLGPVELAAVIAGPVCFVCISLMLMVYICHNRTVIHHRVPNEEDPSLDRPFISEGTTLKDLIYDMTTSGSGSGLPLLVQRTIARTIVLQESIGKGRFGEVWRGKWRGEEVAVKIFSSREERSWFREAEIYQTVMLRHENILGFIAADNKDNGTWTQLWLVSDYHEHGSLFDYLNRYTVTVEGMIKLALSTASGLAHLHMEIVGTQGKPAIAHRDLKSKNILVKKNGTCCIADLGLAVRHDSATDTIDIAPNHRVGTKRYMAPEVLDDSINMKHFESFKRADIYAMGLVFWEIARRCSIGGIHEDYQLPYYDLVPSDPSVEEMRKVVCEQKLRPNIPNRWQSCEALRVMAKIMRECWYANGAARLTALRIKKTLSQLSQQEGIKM
Nature of the assay: Biochemical ALK5 (TGF-βR1) assay to measure pKi (LANCE Ultra ULight kinase assay). Particulars: apparent pKi from pIC50 by Cheng-Prusoff, read-out: ALK5 pKi (converted). A digest of the protocol:
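Compounds (10 μM to 25 pM) were preincubated 60 min at room temperature with enzyme, then reactions were started with ATP (125 μM stock, 5× final) and run 60 min at 37 °C. EDTA-containing Eu-anti-phospho-Topo IIα (Thr1342) antibody stopped the reaction; TR-FRET read at 665 nm. pIC50 from 4-parameter fit, converted to pKi via Cheng-Prusoff.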
For orientation: Time-resolved FRET reads energy transfer from a long-lived donor to a nearby acceptor.

In the case of `Cc1cccc(-c2[nH]cnc2-c2ccc3ncc(-c4csc(C(=O)O)c4)cc3c2)n1` [Compound 798, 4-(6-(5-(6-methylpyridin-2-yl)-1H-imidazol-4-yl)quinolin-3-yl)thiophene-2-carboxylic acid], in assay [1], the IC50 is 1580 to 10000 nM. Also, the Ki in assay [2] is 0.0398 to 0.316 nM.
With `Cc1cccc(-c2n[nH]cc2-c2ccc3ncc(N[C@@]45C[C@@H]6C[C@@H](C[C@@](N)(C6)C4)C5)cc3n2)n1` [Compound 297, rac-(5S,7R)-N1-[6-[3-(6-methyl-2-pyridyl)-1H-pyrazol-4-yl]-1,5-naphthyridin-3-yl]adamantane-1,3-diamine], the IC50 in assay [1] is 200 to 1260 nM. Also, the Ki in assay [2] is 3.98 to 31.6 nM.
The corresponding values for `Cc1cccc(-c2n[nH]cc2-c2ccc3ncc(-n4cc(-c5ccccc5)nn4)cc3n2)n1` [Compound 133, 2-[3-(6-methyl-2-pyridyl)-1H-pyrazol-4-yl]-7-(4-phenyltriazol-1-yl)-1,5-naphthyridine] are 25.1 to 158 nM and 0.398 to 3.16 nM.
With `Cc1cccc(-c2[nH]cnc2-c2ccc3ncc(C(=O)O[C@H]4CC[C@H](N)CC4)cc3c2)n1` [Compound 763, (4-aminocyclohexyl) 6-[5-(6-methyl-2-pyridyl)-1H-imidazol-4-yl]quinoline-3-carboxylate], in assay [1], the IC50 is 25.1 to 158 nM. The Ki in assay [2] is 0.0398 to 0.316 nM.
As for `CCN1CCC(N(C)c2cnc3ccc(-c4c[nH]nc4-c4cccc(C)n4)nc3c2)CC1` [Compound 662, N-(1-ethyl-4-piperidyl)-N-methyl-6-[3-(6-methyl-2-pyridyl)-1H-pyrazol-4-yl]-1,5-naphthyridin-3-amine], the IC50 in assay [1] is 25.1 to 158 nM. In assay [2], the Ki was 0.0398 to 0.316 nM.
As for `Cc1cccc(-c2[nH]cnc2-c2ccc3ncc(-c4cc(C(=O)OC5CCNCC5)ccn4)cc3c2)n1` [Compound 1115, 4-piperidyl 2-[6-[5-(6-methyl-2-pyridyl)-1H-imidazol-4-yl]-3-quinolyl]pyridine-4-carboxylate], in assay [1], the IC50 was 25.1 to 158 nM. In assay [2], the Ki is 0.0398 to 0.316 nM.
As for `Cc1cccc(-c2n[nH]cc2-c2ccc3nccc(C4COC5(CCNC5)CN4)c3n2)n1` (centres unmarked) [Compound 862, 8-[6-[3-(6-methyl-2-pyridyl)-1H-pyrazol-4-yl]-1,5-naphthyridin-4-yl]-6-oxa-2,9-diazaspiro[4.5]decane], the IC50 in assay [1] was 200 to 1260 nM. For the same compound, the Ki in assay [2] was 3.98 to 31.6 nM.
Turning to `Cc1cccc(-c2n[nH]cc2-c2ccc3ncc(-c4ccc(C)nc4C)cc3n2)n1` [Compound 436, 7-(2,6-dimethyl-3-pyridyl)-2-[3-(6-methyl-2-pyridyl)-1H-pyrazol-4-yl]-1,5-naphthyridine], the IC50 in assay [1] was 25.1 to 158 nM. In addition, in assay [2], the Ki is 0.0398 to 0.316 nM.
For `CNC1CCN(c2cnc3ccc(-c4c(-c5cccc(C)n5)nc5ccccn45)nc3c2)CC1` [Compound 501, N-methyl-1-[6-[2-(6-methyl-2-pyridyl)imidazo[1,2-a]pyridin-3-yl]-1,5-naphthyridin-3-yl]piperidin-4-amine], in assay [1], the IC50 is 25.1 to 158 nM. The Ki in assay [2] is 0.0398 to 0.316 nM.
As for `Cc1cccc(-c2[nH]cnc2-c2ccc3ncc(-c4cccc(NC5CNC5)n4)cc3c2)n1` [Compound 180, N-(azetidin-3-yl)-6-[6-[5-(6-methyl-2-pyridyl)-1H-imidazol-4-yl]-3-quinolyl]pyridin-2-amine], in assay [1], the IC50 was 1580 to 10000 nM. The Ki in assay [2] was 0.0398 to 0.316 nM.
On to `Cc1cccc(-c2n[nH]cc2-c2ccc3ncc(N4CCN[C@@H](C(=O)N(C)C)C4)cc3n2)n1` [Compound 204, (2R)-N,N-dimethyl-4-[6-[3-(6-methyl-2-pyridyl)-1H-pyrazol-4-yl]-1,5-naphthyridin-3-yl]piperazine-2-carboxamide], for which the IC50 in assay [1] was 25.1 to 158 nM. For the same compound, the Ki in assay [2] was 0.0398 to 0.316 nM.
The corresponding values for `Cc1cccc(-c2[nH]cnc2-c2ccc3ncc(NCCN4CC5(CNC5)C4)cc3c2)n1` [Compound 709, N-[2-(2,6-diazaspiro[3.3]heptan-2-yl)ethyl]-6-[5-(6-methyl-2-pyridyl)-1H-imidazol-4-yl]quinolin-3-amine] are 25.1 to 158 nM and 0.0398 to 0.316 nM.
The corresponding values for `Cc1cccc(-c2n[nH]cc2-c2ccc3ncc(-c4cccc(C(=O)O)c4)cc3n2)n1` [Compound 172, 3-[6-[3-(6-methyl-2-pyridyl)-1H-pyrazol-4-yl]-1,5-naphthyridin-3-yl]benzoic acid] are 1580 to 10000 nM and < 0.0316 nM.
Consider `Cc1cccc(-c2[nH]cnc2-c2ccc3ncc(NCCN4CCC[C@@H](N)C4)cc3c2)n1` [Compound 730, N-[2-[(3R)-3-amino-1-piperidyl]ethyl]-6-[5-(6-methyl-2-pyridyl)-1H-imidazol-4-yl]quinolin-3-amine], for which the IC50 in assay [1] is 25.1 to 158 nM. Further, the Ki in assay [2] was 0.0398 to 0.316 nM.
The corresponding values for `Cc1cccc(-c2[nH]cnc2-c2ccc3ncc(-c4cnc5c(c4)CNCC5)cc3c2)n1` [Compound 77, 3-[6-[5-(6-methyl-2-pyridyl)-1H-imidazol-4-yl]-3-quinolyl]-5,6,7,8-tetrahydro-1,6-naphthyridine] are 25.1 to 158 nM and 0.0398 to 0.316 nM.
For `Cc1cccc(-c2n[nH]cc2-c2ccc3ncc(N4CCNC(CO)C4)cc3n2)n1` (centres unmarked) [Compound 66, [4-[6-[3-(6-methyl-2-pyridyl)-1H-pyrazol-4-yl]-1,5-naphthyridin-3-yl]piperazin-2-yl]methanol], the IC50 in assay [1] is 25.1 to 158 nM. Also, the Ki in assay [2] was 0.0398 to 0.316 nM.
The corresponding values for `COc1ccc(-c2cnc3ccc(-c4c[nH]nc4-c4cccc(C)n4)nc3c2)cn1` [Compound 420, 7-(6-methoxy-3-pyridyl)-2-[3-(6-methyl-2-pyridyl)-1H-pyrazol-4-yl]-1,5-naphthyridine] are < 20 nM and < 0.0316 nM.
The corresponding values for `Cc1cccc(-c2[nH]cnc2-c2ccc3ncc(C(=O)OC[C@@H]4CCCN4)cc3c2)n1` [Compound 762, [(2S)-pyrrolidin-2-yl]methyl 6-[5-(6-methyl-2-pyridyl)-1H-imidazol-4-yl]quinoline-3-carboxylate] are 25.1 to 158 nM and 0.398 to 3.16 nM.
As for `Cc1cccc(-c2[nH]cnc2-c2ccc3ncc(-c4csc(C(=O)OCCN5CC[C@@H](N)C5)c4)cc3c2)n1` [Compound 1220, 2-[(3R)-3-aminopyrrolidin-1-yl]ethyl 4-[6-[5-(6-methyl-2-pyridyl)-1H-imidazol-4-yl]-3-quinolyl]thiophene-2-carboxylate], in assay [1], the IC50 is 25.1 to 158 nM. In addition, the Ki in assay [2] was 0.0398 to 0.316 nM.
The corresponding values for `Cc1cccc(-c2[nH]cnc2-c2ccc3ncc(-c4nc(C(=O)O[C@H]5CCN(C)C5)cs4)cc3c2)n1` [Compound 747, [(3S)-1-methylpyrrolidin-3-yl] 2-[6-[5-(6-methyl-2-pyridyl)-1H-imidazol-4-yl]-3-quinolyl]thiazole-4-carboxylate] are < 20 nM and 0.0398 to 0.316 nM.
The corresponding values for `Cc1cccc(-c2c(-c3ccc4ncc(N5CCCNCC5)cc4c3)nnn2Cc2ccccc2)n1` [Compound 360, 6-[1-benzyl-5-(6-methyl-2-pyridyl)triazol-4-yl]-3-(1,4-diazepan-1-yl)quinoline] are 1580 to 10000 nM and 0.398 to 3.16 nM.
For `Cc1cccc(-c2nc3n(c2-c2ccc4ncc(-c5cn[nH]c5)cc4c2)CCNC3)n1` [Compound 635, 6-(2-(6-methylpyridin-2-yl)-5,6,7,8-tetrahydroimidazo[1,2-a]pyrazin-3-yl)-3-(1H-pyrazol-4-yl)quinoline], the IC50 in assay [1] was 200 to 1260 nM. The Ki in assay [2] was 0.0398 to 0.316 nM.
